Test results as given in ChEMBL document CHEMBL1629448, “Identification and synthesis of novel inhibitors of acetyl-CoA carboxylase with in vitro and in vivo efficacy on fat oxidation” (J Med Chem, 2010).
Active and inactive are the calls of the source. The calls are words filed in the database; no cut-off is given here.

Assays:
Rattus norvegicus = species on record: Rattus norvegicus; experiment: (§1) Inhibition of N-terminal His-tagged rat recombinant ACC2 expressed in high five insect cells by ATP consumption assay
[1] = as §1
Acetyl-CoA carboxylase 1 [2] = target: Acetyl-CoA carboxylase 1 (Homo sapiens, UniProt Q13085); experiment: Inhibition of N-terminal His-tagged human recombinant ACC1 expressed in high five insect cells by ATP consumption assay
[3] = target: Acetyl-CoA carboxylase 1 (Rattus norvegicus) (UniProt P11497); experiment: (§2) Inhibition of N-terminal His-tagged rat recombinant ACC1 expressed in high five insect cells by ATP consumption assay
Acetyl-CoA carboxylase 1 [4] = target: Acetyl-CoA carboxylase 1 (Rattus norvegicus, UniProt P11497); experiment: as §2
Acetyl-CoA carboxylase 2 = Acetyl-CoA carboxylase 2 (Homo sapiens, UniProt O00763); experiment: Inhibition of N-terminal His-tagged human recombinant ACC2 expressed in high five insect cells by ATP consumption assay
Sequence of Acetyl-CoA carboxylase 2 (O00763 whole entry): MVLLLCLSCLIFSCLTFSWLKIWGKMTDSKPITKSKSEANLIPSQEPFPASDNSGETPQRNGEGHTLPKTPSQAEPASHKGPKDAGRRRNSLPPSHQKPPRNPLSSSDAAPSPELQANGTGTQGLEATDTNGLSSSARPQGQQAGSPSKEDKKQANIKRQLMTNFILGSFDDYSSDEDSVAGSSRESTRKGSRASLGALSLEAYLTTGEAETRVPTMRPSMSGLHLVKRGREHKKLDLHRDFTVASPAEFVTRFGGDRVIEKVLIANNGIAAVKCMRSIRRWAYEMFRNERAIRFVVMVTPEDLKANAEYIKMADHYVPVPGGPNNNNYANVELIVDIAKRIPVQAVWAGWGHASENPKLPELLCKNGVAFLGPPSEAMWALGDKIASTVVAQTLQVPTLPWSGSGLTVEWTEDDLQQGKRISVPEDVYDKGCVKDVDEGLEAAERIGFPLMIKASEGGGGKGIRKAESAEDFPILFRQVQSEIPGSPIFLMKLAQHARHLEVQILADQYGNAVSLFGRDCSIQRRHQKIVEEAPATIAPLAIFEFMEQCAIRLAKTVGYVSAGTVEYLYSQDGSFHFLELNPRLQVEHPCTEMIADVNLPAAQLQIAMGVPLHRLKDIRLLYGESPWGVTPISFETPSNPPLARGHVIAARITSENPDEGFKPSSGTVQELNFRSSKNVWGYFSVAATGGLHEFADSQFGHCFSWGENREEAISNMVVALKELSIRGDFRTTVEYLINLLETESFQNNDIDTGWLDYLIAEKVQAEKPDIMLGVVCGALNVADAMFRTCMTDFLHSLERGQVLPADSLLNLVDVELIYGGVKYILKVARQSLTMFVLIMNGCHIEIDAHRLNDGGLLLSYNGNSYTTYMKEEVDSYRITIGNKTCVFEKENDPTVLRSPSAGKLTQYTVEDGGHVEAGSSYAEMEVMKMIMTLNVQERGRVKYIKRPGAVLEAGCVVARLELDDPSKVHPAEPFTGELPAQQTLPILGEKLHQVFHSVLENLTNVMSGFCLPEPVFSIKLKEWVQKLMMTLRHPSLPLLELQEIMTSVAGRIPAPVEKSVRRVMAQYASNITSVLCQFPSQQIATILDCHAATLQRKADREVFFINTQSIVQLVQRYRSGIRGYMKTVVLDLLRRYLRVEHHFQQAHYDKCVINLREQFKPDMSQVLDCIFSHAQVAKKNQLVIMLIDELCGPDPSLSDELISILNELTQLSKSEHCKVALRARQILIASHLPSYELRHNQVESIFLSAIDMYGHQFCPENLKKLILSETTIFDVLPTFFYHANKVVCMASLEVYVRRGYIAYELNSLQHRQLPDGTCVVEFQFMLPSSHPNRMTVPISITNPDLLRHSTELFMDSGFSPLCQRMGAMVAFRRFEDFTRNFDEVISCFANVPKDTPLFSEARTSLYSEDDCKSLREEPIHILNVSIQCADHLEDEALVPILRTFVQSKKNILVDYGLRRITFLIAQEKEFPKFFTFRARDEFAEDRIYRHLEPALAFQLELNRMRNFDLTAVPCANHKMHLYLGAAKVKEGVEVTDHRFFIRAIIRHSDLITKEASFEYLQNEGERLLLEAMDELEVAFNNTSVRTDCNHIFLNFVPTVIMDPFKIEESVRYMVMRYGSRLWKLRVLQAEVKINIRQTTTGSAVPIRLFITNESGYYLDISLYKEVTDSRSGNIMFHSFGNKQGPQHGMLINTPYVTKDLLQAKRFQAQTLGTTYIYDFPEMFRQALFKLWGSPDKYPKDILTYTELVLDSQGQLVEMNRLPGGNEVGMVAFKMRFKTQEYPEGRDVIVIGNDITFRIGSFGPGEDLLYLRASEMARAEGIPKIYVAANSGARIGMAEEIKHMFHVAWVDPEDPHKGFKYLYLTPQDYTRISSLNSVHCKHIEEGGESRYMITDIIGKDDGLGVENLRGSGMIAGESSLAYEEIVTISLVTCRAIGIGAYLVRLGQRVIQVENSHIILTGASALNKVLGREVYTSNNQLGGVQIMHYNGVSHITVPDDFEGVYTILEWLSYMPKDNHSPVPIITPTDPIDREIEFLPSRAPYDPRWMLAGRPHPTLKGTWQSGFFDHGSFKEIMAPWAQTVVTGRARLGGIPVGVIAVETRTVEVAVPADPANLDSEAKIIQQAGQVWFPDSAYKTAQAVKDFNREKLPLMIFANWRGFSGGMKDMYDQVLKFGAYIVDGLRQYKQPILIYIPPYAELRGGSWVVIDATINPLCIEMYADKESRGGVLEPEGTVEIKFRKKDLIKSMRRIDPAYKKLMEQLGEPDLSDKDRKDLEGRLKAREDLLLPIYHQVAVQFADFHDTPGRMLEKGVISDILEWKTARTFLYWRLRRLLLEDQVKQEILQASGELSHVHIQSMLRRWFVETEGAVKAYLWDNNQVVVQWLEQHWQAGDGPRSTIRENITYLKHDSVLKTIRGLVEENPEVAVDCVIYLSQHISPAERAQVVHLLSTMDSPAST

IC50 (Acetyl-CoA carboxylase 1 [2]) [nM]	inhibition (Acetyl-CoA carboxylase 1 [2])	inhibition [3]	IC50 (Acetyl-CoA carboxylase 1 [4]) [nM]	IC50 (Acetyl-CoA carboxylase 2) [nM]	Structure (SMILES)	inhibition (Rattus norvegicus)	IC50 [1] [nM]
> 30000	inactive	inactive	> 30000	630	CC(=O)NCCCC1OCC(c2cccc3cc(OC4CCCC4)ccc23)CO1 (centres undefined)	inactive	> 30000
5700	–	–	11000	–	CC(CCc1ccc(Oc2ccc(OC(C)C)nc2)cc1)NC=O (centres undefined)	–	17000
2700	–	–	25000	270	CC(=O)NCCCC1OCC(Cc2cccc(OCCC3CCCC3)c2)CO1 (centres undefined)	–	17000
1100	–	–	2900	–	CC(=O)NC(C)CCc1ccc(Oc2ccc(OC3CCCC3)cn2)cc1 (centres undefined)	–	7900
1800	–	–	2600	–	CC(=O)N[C@@H](C)CCc1ccc(Oc2ccc(OC(C)C)cn2)cc1	–	6750
> 30000	–	–	> 30000	–	CC(=O)NCCC[C@H]1OC[C@H](Oc2ccc(OCc3ccccc3)cc2)CO1	–	> 30000
–	–	–	–	> 30000	CC(=O)NCCC[C@H]1OC[C@@H](Oc2ccc(OCc3ccccc3)cc2)CO1	–	–
12700	–	–	> 30000	6700	CC(=O)NC(C)CCc1ccc(Oc2ccc(OC(C)C)nn2)cc1 (centres undefined)	–	> 30000
> 30000	–	–	> 30000	2100	CC(=O)NCCCC1OCC(Cc2cccc(OCCc3ccccc3)c2)CO1 (centres undefined)	–	> 30000
910	–	–	–	70	O=C(c1c2ccccc2cc2ccccc12)N1CCC(N2CCC[C@@H](C(=O)N3CCOCC3)C2)CC1	–	280
14600	–	–	14000	70	CC(=O)NCCC[C@H]1OC[C@H](Oc2ccc(OCc3ccccc3)cn2)CO1	–	> 30000
3900	–	–	13000	190	CC(=O)NCCC[C@H]1OC[C@H](Oc2ccc(OC3CCCC3)cc2)CO1	–	12000
1200	–	–	2900	–	CC(CCc1ccc(Oc2ccc(OC(C)C)nc2)cc1)NC(N)=O (centres undefined)	–	3000
1200	–	–	2900	250	COC(=O)NC(C)CCc1ccc(Oc2ccc(OC(C)C)nc2)cc1 (centres undefined)	–	3900
920	–	–	1200	–	CC(=O)N[C@@H](C)CCc1ccc(Oc2ccc(OCc3ccccc3)cn2)cc1	–	> 30000
> 30000	–	–	> 30000	1200	CC(=O)NC(C)CCc1ccc(OC2=NCC(OC(C)C)N=C2)cc1 (centres undefined)	–	> 30000
2300	–	–	10500	60	CC(=O)N[C@@H](C)CO[C@H]1CC[C@H](Oc2ccc(OC(C)C)nc2)CC1	–	600
21000	–	–	> 30000	700	CC(=O)NCCCC1OCC(Cc2cccc(OCC3CCC3)c2)CO1 (centres undefined)	–	> 30000
620	–	–	3200	190	CC(CCc1ccc(Oc2ccc(OC(C)C)nc2)cc1)NC(=O)C1CC1 (centres undefined)	–	1900
360	–	–	800	80	CC(C)Oc1ccc(Oc2ccc(CC[C@H](C)NC(=O)C3CC3)cc2)cn1	–	700
> 30000	–	–	> 30000	2650	CC(=O)NCCCC1OCC(Cc2cccc(OCCC3CC3)c2)CO1 (centres undefined)	–	> 30000
9900	–	–	> 30000	7800	CC(=O)N[C@H](C)CCc1ccc(Oc2ccc(OC(C)C)nc2)cc1	–	> 30000
> 30000	–	–	> 30000	1280	CC(=O)NCCCc1ccc(Oc2ccc(OC3CCCC3)cn2)cc1	–	> 30000
750	–	–	2100	210	CC(=O)NC(C)CCc1ccc(Oc2ccc(OCc3ccccc3)cn2)cc1 (centres undefined)	–	> 30000
1780	–	–	2600	–	CC(=O)NC(C)CCc1ccc(Oc2ccc(OC(C)C)cn2)cc1 (centres undefined)	–	4520
140	–	–	1140	15	CC(=O)N[C@@H](C)CC[C@H]1CC[C@H](Oc2ccc(OC(C)C)nc2)CC1	–	200
–	–	–	–	> 30000	CC(=O)N[C@H](C)CCc1ccc(Oc2ccc(OCc3ccccc3)cn2)cc1	–	–
> 10000	–	–	> 10000	60	CC(=O)N[C@@H](C)C#Cc1cnc(Oc2ccc(OC(C)C)cc2)s1	–	380
3000	–	–	7400	700	CC(=O)NC(C)CCc1ccc(Oc2cnc(OC(C)C)nc2)cc1 (centres undefined)	–	20000
1100	–	–	700	80	CC(=O)NC(C)CCc1ccc(Oc2ccc(OCc3ccccc3)nc2)cc1 (centres undefined)	–	7900
